Reference: PubChem BioAssay (NCI)
Values joined by “and” are separate entries in the source; they are usually repeats but may differ in a detail not shown here. Equal values may be shown once.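 Growth conditions: 96-well plates. Treatment: test compound, 48 hours, 5 concentrations. Analysis: linear interpolation between bracketing concentrations; unreached endpoints set to highest concentration. GI50 = concentration required for 50% inhibition of growth. At the TGI there is no net growth.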

Legend:
Experiment in all cases: NCI tumour cell line growth inhibition, 48 h
[1] = system: SNB-78 CNS
[2] = system: DMS 114 small cell lung
[3] = system: KM20L2 colon
[4] = system: DMS 273 small cell lung
[5] = system: MDA-N
[6] = system: RXF-631 renal
[7] = system: LXFL 529 NSCLC
[8] = system: M19-MEL melanoma
[9] = system: XF 498 CNS
[10] = system: P388 leukemia
[11] = system: SN12K1 renal
[12] = system: P388/ADR leukemia

## CN(C)C(=S)/N=c1\ss/c(=N\C(=S)N(C)C)n1-c1cccc(Cl)c1
[1]
  TGI: > 100 µM
[2]
  TGI: > 100 µM
[3]
  TGI: > 100 µM
[4]
  TGI: > 100 µM

## CC(C)Cc1cnc(CC(C)C)c(=O)[nH]1
[5]
  TGI: > 100 µM

## COc1ccc(-c2nc3ccccc3s2)cc1OC
[5]
  TGI: > 100 µM

## O=C(CC1=Nc2nnc(CCCCCCCc3nnc4n3C(=O)C(CC(=O)c3ccc5ccccc5c3)=N4)n2C1=O)c1ccc2ccccc2c1
[6]
  TGI: > 100 µM
[1]
  TGI: > 100 µM
[7]
  TGI: > 100 µM
[2]
  TGI: > 100 µM
[3]
  TGI: > 100 µM
[8]
  TGI: > 100 µM
[9]
  TGI: > 100 µM
[4]
  TGI: > 100 µM

## NCCO/C=C/C(N)C(=O)O (stereo not given)
[5]
  TGI: > 100 µM

## COC(=O)C1CC(c2ccc(OC)c(OC)c2)OC1=O (mixture of isomers)
[6]
  TGI: > 100 µM
[1]
  TGI: > 100 µM
[7]
  TGI: > 100 µM
[2]
  TGI: > 100 µM
[3]
  TGI: > 100 µM
[8]
  TGI: > 100 µM
[9]
  TGI: > 100 µM
[4]
  TGI: > 100 µM

## c1ccc2c(c1)[nH]c1c2nc2ccccn21
[6]
  TGI: > 100 µM
[1]
  TGI: > 100 µM
[7]
  TGI: > 100 µM
[2]
  TGI: > 100 µM
[3]
  TGI: > 100 µM
[8]
  TGI: > 100 µM
[9]
  TGI: > 100 µM
[4]
  TGI: > 100 µM

## CC(=O)[CH-]C(C)=O.CC(=O)[CH-]C(C)=O.[O-]c1ccccc1.[O-]c1ccccc1.[Ti+4]
[7]
  GI50: > 100 µM
  TGI: > 100 µM
[2]
  GI50: > 100 µM
  TGI: > 100 µM
[3]
  GI50: > 100 µM
  TGI: > 100 µM
[9]
  GI50: > 100 µM
  TGI: > 100 µM
[4]
  GI50: > 100 µM
  TGI: > 100 µM

## Cc1cc(Cl)ccc1NC(=O)CCCC(=O)C1C/C(=N/O)CC/C1=N\O (stereo not given)
[6]
  TGI: > 100 µM
[1]
  TGI: > 100 µM
[7]
  TGI: > 100 µM
[2]
  TGI: > 100 µM
[3]
  TGI: > 100 µM
[8]
  TGI: > 100 µM
[9]
  TGI: > 100 µM
[4]
  TGI: > 100 µM

## Oc1ccc(Cl)cc1C=Nc1cnc2ccccc2c1
[5]
  TGI: > 100 µM

## C[C@@H]1C[C@@H]([C@H](O)CC2CC(=O)NC(=O)C2)C(=O)[C@@H](C)C1
[6]
  TGI: 0.608 µM
[1]
  TGI: 11.1 µM
[7]
  TGI: 0.623 µM
[2]
  TGI: 1.79 µM
[3]
  TGI: 21.5 µM
[8]
  TGI: 3.48 µM
[9]
  TGI: 0.504 µM

## Cc1n[nH]c2ccccc2c1=O
[5]
  TGI: > 100 µM

## Cn1c(=O)oc2cc(C3CCC(=O)N3Cc3csc(-c4ccccc4)n3)ccc21 (stereo not given)
[1]
  TGI: > 100 µM
[7]
  TGI: > 100 µM
[2]
  TGI: > 100 µM
[3]
  TGI: > 100 µM
[8]
  TGI: > 100 µM
[9]
  TGI: > 100 µM
[4]
  TGI: > 100 µM

## COc1c2ccoc2nc2c(OC)c(OCC(O)C(C)(C)O)ccc12 (stereo not given)
[5]
  TGI: > 100 µM

## [N-]=[N+]=CC(=O)CCC(N)C(=O)O (stereo not given)
[10]
  TGI: 21.9 µM
[11]
  TGI: 141 µM
[1]
  TGI: > 74.4 µM
[2]
  TGI: 95.5 µM
[3]
  TGI: > 250 µM
[8]
  TGI: > 138 µM
[5]
  GI50: 2.26 µM
  TGI: > 250 µM
[9]
  TGI: 230 µM
[4]
  TGI: > 250 µM
[12]
  TGI: 30.4 µM

## CC(=O)N1[C@H](C(=O)O)CS[C@H]1c1ccc(F)cc1
[6]
  TGI: > 100 µM
[1]
  TGI: > 100 µM
[7]
  TGI: > 100 µM
[2]
  TGI: > 100 µM
[8]
  TGI: > 100 µM

## CC(C)(C)C#COC(=O)c1ccccc1
[1]
  TGI: > 100 µM
[7]
  TGI: > 100 µM
[2]
  TGI: > 100 µM
[3]
  TGI: > 100 µM
[8]
  TGI: > 100 µM

## O=c1c2cccnc2ncn1CCCN1CCCCC1
[1]
  TGI: > 100 µM
[2]
  TGI: > 100 µM
[8]
  TGI: > 100 µM
[9]
  TGI: > 100 µM
[4]
  TGI: > 100 µM

## COc1ccc(-c2ccc(CC(=O)O)cc2)cc1OC
[1]
  TGI: > 100 µM
[7]
  TGI: > 100 µM
[2]
  TGI: > 100 µM
[3]
  TGI: > 100 µM
[8]
  TGI: > 100 µM
[9]
  TGI: > 100 µM

## CC1CCC2C(C)C(=O)OC2C2(C)C(=O)C=CC12 (stereo not given)
[5]
  TGI: > 10 µM

## O=C1NC(O)n2c(=O)[nH]c(=O)n21 (stereo not given)
[6]
  TGI: > 100 µM
[1]
  TGI: > 100 µM
[7]
  TGI: > 100 µM
[3]
  TGI: > 100 µM
[8]
  TGI: > 100 µM
[9]
  TGI: > 100 µM
[4]
  TGI: > 100 µM

## COC(=O)C1C=CCC2CCCCC21N1CCCC1 (stereo not given)
[6]
  TGI: > 100 µM
[1]
  TGI: > 100 µM
[7]
  TGI: > 100 µM
[2]
  TGI: > 100 µM
[3]
  TGI: > 100 µM
[8]
  TGI: > 100 µM
[4]
  TGI: > 100 µM

## C1=CC(=P(c2ccccc2)(c2ccccc2)c2ccccc2)C=C1
[6]
  TGI: 46.7 µM
[1]
  TGI: 26.7 µM
[7]
  TGI: 13 µM
[2]
  TGI: 15.9 µM
[3]
  TGI: 31.1 µM
[8]
  TGI: 14.2 µM
[9]
  TGI: 12.6 µM
[4]
  TGI: 26.4 µM

## Cc1cccc(C2NC(=O)c3ccccc3N2)c1 (stereo not given)
[5]
  TGI: 3.45 µM

## OCC(O)C(O)C(O)C(/C=N\Nc1ncnc2c(Br)cc(Br)cc12)=N/Nc1ncnc2c(Br)cc(Br)cc12 (stereo not given)
[5]
  TGI: 23.2 µM and > 100 µM

## Clc1ccccc1C(Nc1cnccn1)Nc1cnccn1
[5]
  TGI: > 100 µM

## Cc1c(C)c([N+](=O)[O-])c2c(c1N)C(=O)c1ccccc1C2=O
[1]
  TGI: > 100 µM
[7]
  TGI: > 100 µM
[2]
  TGI: > 100 µM
[3]
  TGI: > 100 µM
[8]
  TGI: > 100 µM
[9]
  TGI: > 100 µM
[4]
  TGI: > 100 µM

## O=c1c(Cc2ccccc2)c(O)cc2n1CCC2
[6]
  TGI: > 100 µM
[1]
  TGI: > 100 µM
[7]
  TGI: > 100 µM
[2]
  TGI: > 100 µM
[3]
  TGI: > 100 µM
[8]
  TGI: > 100 µM
[9]
  TGI: > 100 µM

## N=C1CCCC1C(=S)SCCC(N)=O (stereo not given)
[5]
  TGI: > 100 µM

## O=C(Nc1ccc(Cl)cc1C(F)(F)F)C(=O)Nn1c(=S)[nH]c2ccccc2c1=O
[5]
  TGI: > 100 µM

## Cc1cc2c(c(C(=O)O)c1C)-c1cccc(Cl)c1C2=O
[1]
  TGI: > 100 µM
[7]
  TGI: > 100 µM
[2]
  TGI: > 100 µM
[3]
  TGI: > 100 µM
[8]
  TGI: > 100 µM
[9]
  TGI: > 100 µM
[4]
  TGI: > 100 µM

## CCOc1ccc(NC(=O)/C(CC(=O)c2c[n+](=O)c3ccccc3n2[O-])=N\OCCCc2ccccc2)cc1
[6]
  TGI: > 100 µM
[1]
  TGI: > 100 µM
[7]
  TGI: > 100 µM
[2]
  TGI: > 100 µM
[3]
  TGI: > 100 µM
[8]
  TGI: > 100 µM
[4]
  TGI: > 100 µM

## CN1CCCC2[C@@H]3CCC4c5nonc5CC[C@]4(C)C3CC[C@@]21C (stereo not given in full)
[1]
  TGI: > 100 µM
[7]
  TGI: > 100 µM
[2]
  TGI: > 100 µM
[3]
  TGI: > 100 µM
[8]
  TGI: > 100 µM
[9]
  TGI: 81.8 µM
[4]
  TGI: > 100 µM

## CC(=O)Nc1ccc(C2CC(c3ccc([N+](=O)[O-])cc3)=Nc3ccccc3S2)cc1 (stereo not given)
[6]
  TGI: 70 µM
[1]
  TGI: > 100 µM
[7]
  TGI: 41.7 µM
[3]
  TGI: 47.9 µM
[8]
  TGI: 45.6 µM
[9]
  TGI: 27 µM
[4]
  TGI: 71.4 µM

## COc1cc(C)c2c(c1)CN1CN2Cc2cc(OC)cc(C)c21
[1]
  TGI: > 100 µM
[7]
  TGI: > 100 µM
[2]
  TGI: 75.1 µM
[8]
  TGI: > 100 µM
[4]
  TGI: > 100 µM

## O=c1c(-c2ccc3c(c2)OCO3)coc2c3c(ccc12)OCO3
[5]
  TGI: > 100 µM

## CCOc1c(Br)cc(Br)cc1C=C(C#N)C#N
[5]
  TGI: > 10 µM
